The source made the active and inactive calls. The rule behind the calls is not given here.
Assays:
[1] = target: Trypanothione reductase (Leishmania donovani) (UniProt P39050); assay: Inhibition of recombinant Leishmania donovani trypanothione reductase expressed in Escherichia coli BL21 (DE3) using trypanothione disulphide as substrate at 100 uM preincubated for 5 mins followed by substrate addition by microplate reader analysis relative to control
[2] = target: Trypanothione reductase (Leishmania donovani) (UniProt P39050); assay: Inhibition of recombinant Leishmania donovani trypanothione reductase expressed in Escherichia coli BL21 (DE3) using trypanothione disulphide as substrate at 50 uM preincubated for 5 mins followed by substrate addition by microplate reader analysis relative to control
Trypanothione reductase = Trypanothione reductase (Leishmania donovani, UniProt P39050); assay: Competitive inhibition of recombinant Leishmania donovani trypanothione reductase expressed in Escherichia coli BL21 (DE3) by Dixon plot analysis in presence of trypanothione disulphide
Sequence of Trypanothione reductase (P39050 whole entry): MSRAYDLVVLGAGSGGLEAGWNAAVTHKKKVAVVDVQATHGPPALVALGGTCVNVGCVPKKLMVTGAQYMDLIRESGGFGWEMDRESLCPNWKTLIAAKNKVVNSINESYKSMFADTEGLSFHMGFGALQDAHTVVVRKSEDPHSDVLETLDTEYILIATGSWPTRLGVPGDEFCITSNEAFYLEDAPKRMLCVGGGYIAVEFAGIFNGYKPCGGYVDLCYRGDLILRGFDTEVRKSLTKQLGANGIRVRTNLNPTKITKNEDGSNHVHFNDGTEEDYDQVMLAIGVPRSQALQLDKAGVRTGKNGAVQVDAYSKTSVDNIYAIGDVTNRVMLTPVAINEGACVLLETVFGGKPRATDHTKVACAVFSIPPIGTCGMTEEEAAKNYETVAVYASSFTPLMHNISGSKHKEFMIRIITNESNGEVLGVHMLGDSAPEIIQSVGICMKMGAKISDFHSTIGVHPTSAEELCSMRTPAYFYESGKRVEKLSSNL

Leishmania donovani [3] = assay: Antileishmanial activity against extracellular promastigote stage of Leishmania donovani after 96 hrs by luciferase reporter gene assay; type: functional, organism-based
Leishmania donovani [4] = assay: Antileishmanial activity against amastigote stage of Leishmania donovani infected in mouse J774A.1 cells after 72 hrs by luciferase reporter gene assay; type: functional, organism-based; settings: J774.A1, 72 h
[5] = Cytotoxicity against African green monkey Vero cells assessed as cell viability after 72 hrs by MTT assay; type: cell-based; settings: chlorocebus sabaeus
[6] = (§1) Selectivity index, ratio of CC50 for African green monkey Vero cells to IC50 for amastigote stage of Leishmania donovani infected in mouse J774A.1 cells; type: functional
Vero = assay: as §1; type: functional

Sequence of Trypanothione reductase (Leishmania donovani) (P39050 whole entry): as above

Row | Compound | inhibition [1] | inhibition [2] | Ki (Trypanothione reductase) [µM] | IC50 (Leishmania donovani [3]) [µM] | IC50 (Leishmania donovani [4]) [µM] | CC50 at 72 h [5] [µM] | Ratio CC50/IC50 [6] | Ratio CC50/IC50 (Vero)
1 | COC(=O)c1cc2c([nH]c3ccccc32)c(C2Nc3ccccc3C(=O)N2C2CCCC2)n1 (stereo unspecified) | 30% | 20% |  |  |  |  |  | 
2 | CCCCCN1C(=O)c2ccccc2NC1c1nc(C(=O)OC)cc2c1[nH]c1ccccc12 (stereo unspecified) | 99% | 90% | 0.8 | 9.9 | > 40 |  |  | 
3 | COC(=O)c1cc2c([nH]c3ccccc32)c(C2Nc3ccccc3C(=O)N2C2CCCCC2)n1 (stereo unspecified) | 1% | inactive |  |  |  |  |  | 
4 | COC(=O)c1cc2c([nH]c3ccccc32)c(C2Nc3ccccc3C(=O)N2C2CC2)n1 (stereo unspecified) | inactive | inactive |  |  |  |  |  | 
5 | COC(=O)c1cc2c([nH]c3ccccc32)c(C2Nc3ccccc3C(=O)N2c2ccccc2)n1 (stereo unspecified) | 18% | 16% |  |  |  |  |  | 
6 | CCCCCCCCCCCCCCCCOP(=O)([O-])OCC[N+](C)(C)C [MILTEFOSINE] |  |  |  | 1.2 | 8.1 | 56.5 | 7 | 
7 | COC(=O)c1cc2c([nH]c3ccccc32)c(C2Nc3ccccc3C(=O)N2C2CCCCCC2)n1 (stereo unspecified) | inactive | inactive |  |  |  |  |  | 
8 | sodium stibogluconate |  |  |  |  |  |  |  | 7

The next lines start with results.

Row | inhibition [1] | inhibition [2] | Ki (Trypanothione reductase) [µM] | IC50 (Leishmania donovani [3]) [µM] | IC50 (Leishmania donovani [4]) [µM] | Compound | CC50 at 72 h [5] [µM] | Ratio CC50/IC50 [6] | Ratio CC50/IC50 (Vero)
9 | 96% | 81% | 3.9 | 4.6 | 6 | COC(=O)c1cc2c([nH]c3ccccc32)c(C2Nc3ccccc3C(=O)N2c2ccc(F)cc2)n1 (stereo unspecified) | 217 | 36 | 
10 | 67% | 64% | 7.2 | 3.3 | 4.4 | COC(=O)c1cc2c([nH]c3ccccc32)c(C2Nc3ccccc3C(=O)N2c2ccc(Cl)cc2)n1 (stereo unspecified) | > 400 | >91 | 
11 | inactive | inactive |  |  |  | COC(=O)c1cc2c([nH]c3ccccc32)c(C2Nc3ccccc3C(=O)N2c2ccc(OC)cc2)n1 (stereo unspecified) |  |  | 
12 | 75% | 58% | 6.5 | 8.5 | > 40 | CCN1C(=O)c2ccccc2NC1c1nc(C(=O)OC)cc2c1[nH]c1ccccc12 (stereo unspecified) |  |  | 
13 | 85% | 77% | 3.7 | 4.8 | 4.3 | COC(=O)c1cc2c([nH]c3ccccc32)c(C2Nc3ccccc3C(=O)N2Cc2ccc(Cl)c(Cl)c2)n1 (stereo unspecified) | 104 | 24 | 
14 | 60% | 56% | 9.2 | 5.4 | 35.2 | COC(=O)c1cc2c([nH]c3ccccc32)c(C2Nc3ccccc3C(=O)N2Cc2ccc(OC)cc2)n1 (stereo unspecified) | 106 | 3 | 
15 | 11% | 6% |  |  |  | COC(=O)c1cc2c([nH]c3ccccc32)c(C2Nc3ccccc3C(=O)N2Cc2ccccc2)n1 (stereo unspecified) |  |  | 
16 | 35% | 28% |  |  |  | CCCCN1C(=O)c2ccccc2NC1c1nc(C(=O)OC)cc2c1[nH]c1ccccc12 (stereo unspecified) |  |  | 
17 | 9% | 7% |  |  |  | CCCN1C(=O)c2ccccc2NC1c1nc(C(=O)OC)cc2c1[nH]c1ccccc12 (stereo unspecified) |  |  | 

From ChEMBL document CHEMBL3734756, “Novel -carbolinequinazolinone hybrid as an inhibitor of Leishmania donovani trypanothione reductase: Synthesis, molecular docking and bioevaluation” (Medchemcomm, 2015)
